In article PMC8246065 (The EMBO Journal, 2021):
Where two headings read alike, the source gives them in different places.

Experiments:
NOD1 = molecular target: T1, NOD1 (Homo sapiens, UniProt Q9Y239); experiment: Microscale thermophoresis (MST) binding to purified NOD1-GFP
T1 sequence (Q9Y239 1-953): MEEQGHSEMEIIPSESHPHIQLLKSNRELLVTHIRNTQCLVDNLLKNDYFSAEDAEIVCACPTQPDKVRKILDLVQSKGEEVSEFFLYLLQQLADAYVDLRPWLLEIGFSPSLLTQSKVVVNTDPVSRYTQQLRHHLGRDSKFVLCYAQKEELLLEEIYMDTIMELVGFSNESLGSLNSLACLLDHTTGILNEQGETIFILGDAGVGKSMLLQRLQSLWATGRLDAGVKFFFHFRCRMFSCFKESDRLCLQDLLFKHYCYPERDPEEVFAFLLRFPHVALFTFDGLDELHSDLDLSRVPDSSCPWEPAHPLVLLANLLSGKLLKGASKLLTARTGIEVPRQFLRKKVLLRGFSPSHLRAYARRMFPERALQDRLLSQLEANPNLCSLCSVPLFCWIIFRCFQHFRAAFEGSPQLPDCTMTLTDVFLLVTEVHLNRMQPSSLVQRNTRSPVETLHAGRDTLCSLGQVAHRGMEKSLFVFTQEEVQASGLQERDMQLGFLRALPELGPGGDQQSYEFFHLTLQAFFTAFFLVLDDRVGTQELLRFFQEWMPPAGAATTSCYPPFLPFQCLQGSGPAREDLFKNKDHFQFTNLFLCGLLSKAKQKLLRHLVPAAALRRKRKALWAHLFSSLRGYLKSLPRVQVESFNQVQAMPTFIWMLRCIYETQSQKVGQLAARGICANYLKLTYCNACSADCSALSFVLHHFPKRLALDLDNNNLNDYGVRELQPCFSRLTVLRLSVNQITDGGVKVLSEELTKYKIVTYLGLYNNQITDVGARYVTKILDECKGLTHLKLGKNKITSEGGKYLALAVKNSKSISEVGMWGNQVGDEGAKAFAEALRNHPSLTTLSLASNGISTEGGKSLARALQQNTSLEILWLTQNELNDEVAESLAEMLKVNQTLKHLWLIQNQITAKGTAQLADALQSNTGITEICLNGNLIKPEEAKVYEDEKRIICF
Procedure: The lysates were incubated with 2 ml GFP‐Trap agarose at 4°C for 4 h. The agarose was collected with Poly‐Prep columns by gravity flow. […] To remove heat shock proteins, columns were further washed with 50 ml wash buffer III (50 mM Tris–HCl, pH 7.5, 150 mM NaCl, 5 mM MgCl2+, 1 mM ATP). To elute the proteins, the agarose was mixed with 2 ml elution buffer (100 mM Glycine, pH 2.5) for 1 min and the eluted proteins were immediately neutralized with 0.2 ml of 1 M Tris, pH 10.5.

[1] = test system: HeLa inducible NOD1 or NOD2 cells; experiment: ELISA of IL6/IL8 in supernatants of HeLa inducible NOD1 or NOD2 cells; assay type: cell-based, human
Procedure: To differentiate THP‐1 into macrophage‐like cells, THP‐1 cells were stimulated with 50 ng/ml phorbol 12‐myristate 13‐acetate (Sigma‐Aldrich, P8139) for 24 h and then incubated with fresh medium for another 48 h. […] To induce NOD1 or NOD2 expression, HeLa NOD1 or NOD2 cells were treated with 0.5 µg/ml or 0.25 µg/ml doxycycline for at least 16 h, respectively. All cells have been checked for mycoplasma contamination regularly. Bone marrow‐derived macrophages (BMDMs) were obtained from tibial and femural bones and generated with DMEM containing 20% L929 cell supernatant, 10% FBS, 5% heat‐inactivated horse serum, 1 mM sodium pyruvate, and 2 mM L‐glutamine. For BMDM stimulation experiments, BMDMs were treated with IFN‐γ (20 ng/ml) overnight before stimulation.

NOD1/2 = experiment: dSTORM imaging of HeLa NOD1 or NOD2 cells; assay type: cell-based, human; details: S1P 20 µM, 2 h
Procedure: For dSTORM, HeLa inducible NOD1‐GFP or NOD2‐GFP cells were grown on µ‐Slides with glass bottom (ibidi, Germany) and treated with doxycycline overnight to induce NOD1‐GFP or NOD2‐GFP expression. […] Then, cells were fixed with 4% (v:v) paraformaldehyde in PBS, pH 7.4 for 10 min at room temperature (RT). After washing twice with PBS, cells were incubated with 50 mM glycine in PBS, pH 7.4 for 10 min and permeabilized with 0.05% saponin (Sigma‐Aldrich, 47036), 1% BSA in PBS for 10 min. Rabbit anti‐GFP antibody (ChromoTek) and Alex Fluor 647‐conjugated goad anti‐rabbit antibody (Thermo Fisher Scientific) were diluted in PBS and incubated for 1 h at room temperature. The super resolution imaging was performed with Nanoimager S (Oxford Nanoimaging). For single particle tracking in live cells, Nanoimager S was pre‐warmed at 37°C. […] Medium was then replaced with fresh DMEM without phenol red. Live imaging was performed with Nanoimager S at acquisition speed of 100fps.

Kd (NOD1; Fig 6D, one representative experiment, read-out: Kd (NOD1/ligand)): 2090 ± 770 nM | Kd (NOD1; Fig EV5B, purified NOD1, read-out: Kd (NOD1/ligand)): 2290 ± 1970 nM | Kd (NOD1; Kd value of S1P interacting with NOD1, as stated in text): ~2000 nM | Kd (NOD1; Kd(NOD1: S1P), Fig 7C, S1P alone): 1740 ± 430 nM | Kd (NOD1; Kd(NOD1 WT: S1P), Fig 7E): 2200 ± 510 nM
SMILES: CCCCCCCCCCCCC/C=C/[C@@H](O)[C@@H](N)COP(=O)(O)O [S1P, sphingosine‐1‐phosphate]
IL6 production compared to iE-DAP or MDP at the same concentration ([1]; 0.5, 5 or 20 µM with digitonin (5 µg/ml), Fig EV4E,F): higher IL6 production | IL6 production on co-stimulation vs single stimulation ([1]; S1P (2 µM) with iE-DAP or MDP (3, 20, 50 µM), digitonin, 20 h): significantly higher IL6 production | IL6 or IL8 production ([1]; cytosolic delivery with digitonin (5 µg/ml), 20 h): induced abundant IL6 or IL8 production | IL6 or IL8 production ([1]; extracellular stimulation (absence of digitonin), S1P 10 µM): did not induce marked IL6 or IL8 production | Oligomerization of NOD1/2 (NOD1/2): oligomerization of NOD1/2 induced
